For data set [1], the species on record is Rattus norvegicus. Briefly: Compound was evaluated for the amount of protein solubilized, expressed as percentage weight of freeze-dried mitochondria (20 mg) of rat liver. The class given is functional, organism-based.
The species named for data set [2] is Rattus norvegicus. Briefly: Compound was evaluated for the amount of protein solubilized, expressed as percentage weight of freeze-dried nuclear membrane (100 mg) of rat liver. In kind it is functional.
For data set [3], the species on record is Rattus norvegicus. Briefly: Compound was evaluated for the amount of protein solubilized, expressed as percentage weight of freeze-dried microsomes (20 mg) of rat liver. The class given is functional.
The nature of data set [4]: Water solubility was evaluated. The class given is ADME. The settings on record: read-out: Ws.

Converted amounts (≈) assume the structure as drawn. Bounds are passed on as bounds.

As for `CC(C)(C)CC(C)(C)c1ccc(OCCO)cc1`, the Weight is 74.9% in the data set filed under Rattus norvegicus [1], 62.2% in the data set filed under Rattus norvegicus [2] and 76.2% in the data set filed under Rattus norvegicus [3].

For the molecule `O=C(CC[S+]([O-])CCC(F)(F)C(F)(F)C(F)(F)C(F)(F)C(F)(F)C(F)(F)C(F)(F)C(F)(F)F)NC(CO)(CO)COC1O[C@H](CO)[C@H](O)[C@H](O)[C@H]1O` (some centres not stated), in data set [4], the solubility was above 1500 µg/mL.

In the case of `CCCCCCCCCC[S+]([O-])CCC(=O)NC(CO)(CO)CO` (configuration not stated), the Weight amounted to 71% in the data set listed under Rattus norvegicus [1], 57.4% in the data set filed under Rattus norvegicus [2] and 68.9% in the data set filed under Rattus norvegicus [3]. The solubility in data set [4] was above 10000 µg/mL.

In the case of `CCCCCCCC[S+]([O-])CCC(=O)NC(CO)(CO)CO` (configuration not stated), the Weight in the data set filed under Rattus norvegicus [1] worked out at 69.8%; in the data set listed under Rattus norvegicus [2], 55.5%; in the data set listed under Rattus norvegicus [3], 71%. The solubility in data set [4] was above 10000 µg/mL.

As for `O=C(CC[S+]([O-])CCC(F)(F)C(F)(F)C(F)(F)C(F)(F)C(F)(F)C(F)(F)F)NC(CO)(CO)CO` (configuration not stated), the Weight in the data set listed under Rattus norvegicus [1] was 30.3%; in the data set listed under Rattus norvegicus [2], 25.5%; in the data set filed under Rattus norvegicus [3], 32.6%. For the same molecule, the solubility in data set [4] turned out to be 1200 µg/mL (≈ 2100 µM).

Take `O=C(CC[S+]([O-])CCC(F)(F)C(F)(F)C(F)(F)C(F)(F)C(F)(F)C(F)(F)C(F)(F)C(F)(F)F)NC(CO)(CO)CO` (configuration not stated): in data set [4], the solubility is 25 µg/mL (≈ 37.2 µM).

Regarding `CCCCCCCCCCCC[S+]([O-])CCC(=O)NC(CO)(CO)CO[C@@H]1O[C@H](CO)[C@H](O)[C@H](O)[C@H]1O` (some centres not stated), the solubility in data set [4] is above 10000 µg/mL.

For `O=C(CC[S+]([O-])CCC(F)(F)C(F)(F)C(F)(F)C(F)(F)C(F)(F)C(F)(F)F)NC(CO[C@H]1O[C@@H](CO)[C@@H](O)[C@@H](O)[C@@H]1O)(CO[C@@H]1O[C@H](CO)[C@H](O)[C@H](O)[C@H]1O)CO[C@@H]1O[C@H](CO)[C@H](O)[C@H](O)[C@H]1O` (some centres not stated), the solubility in data set [4] is above 10000 µg/mL.

`CCCCCCCCCCCC[S+]([O-])CCC(=O)NC(CO)(CO)CO` (configuration not stated): the Weight in the data set filed under Rattus norvegicus [1] was 65.6%; in the data set listed under Rattus norvegicus [2], 52.4%; in the data set filed under Rattus norvegicus [3], 62.5%. In addition, in data set [4], the solubility is above 6000 µg/mL.

In the case of `CCCCCCCCCCCCCCCC[S+]([O-])CCC(=O)NC(CO)(CO)CO` (configuration not stated), the values for the Weight in the data set filed under Rattus norvegicus [1], in the data set listed under Rattus norvegicus [2] and in the data set listed under Rattus norvegicus [3] were 58.6%, 45.7% and 58.4%, respectively. In data set [4], the solubility worked out at 85 µg/mL (≈ 189 µM).

The record behind these values is ChEMBL document CHEMBL1130846, “A new class of sulfoxide surfactants derived from Tris. Synthesis and preliminary assessments of their properties” (Bioorg Med Chem Lett, 1998).
